From EP0966414B1, “TRIARYLMETHYL FREE RADICALS AS IMAGE ENHANCING AGENTS” (Amersham Health AS, priority 1997, dated 1998) come the findings set out here.

A short description of the series: ESR spectrum linewidth in aqueous solution. In kind it is physicochemical. The note with it: 100 G, singlet. Here is the method:
For the method according to the invention the preferred radicals are those which have relatively few transitions, e.g. less than 15, preferably less than 10, in their ESR spectra and radicals having narrow linewidth ESR transitions, e.g. up to 500 mG, preferably less than 150 mG, especially less than 60 mG and particularly less than 25mG, are especially preferred. (The linewidths referred to are conveniently the intrinsic linewidths (full width at half maximum in the absorption spectrum) under ambient conditions).

In turn, “Tris (8-carboxymethylthio-2,2,6,6-(2-(1-hydroxyethyl)) benzo[1,2-d:4,5-d']bis(1,3)dithiole-4-yl)methyl sodium salt [Example 9]” registered an ESR linewidth (2.5 mM aqueous solution) of 195 mg.
Substance “Tris(8-[N,N-bis(2,3-dihydroxypropyl)aminocarbonylmethylthiol-2,2,6,6-tetra-(2-(1-hydroxyethyl))benzo[1,2-d:4,5-d'] bis(1,3)dithiole-4-yl)methyl [Example 11]” had an ESR linewidth (1.0 mM in H2O) of 274 mg.
The same measure, in the same setting: with “Tris(8-carboxyl-2,2,6,6-tetra(hydroxyethyl)-benzo[1,2-d:4,5-d']bis(1,3)dithiole-4-yl)methyl N,N-bis(1,2-dihydroxyprop-3-yl)-acetamid-2-yl-ester [Example 23]” the figure was 226 mg; with “Tris (8-carboxyl-2,2,6,6-tetra (2-(1-hydroxy-2.2-d2-ethyl))-benzo[1,2-d:4,5-d']bis(1,3)dithiole -4-yl)methyl sodium salt [Example 21]”, 70 mg.
With “Tris(8-carboxy-2,2,6,6-tetra-(hydroxyethyl)benzo[1,2-d:4,5-d']bis(1,3)dithiole-4-yl)methyl sodium salt [Example 7]”, the ESR linewidth (1.0 mM in H2O) worked out at 160 mg.
